What all share (assay type): cell-based
The subject of series [1] is MB231 breast cancer cells. Nature of the series: FACS of propidium iodide stained cells after radiation. The following applies: 1 µM with 5 Gy radiation, 48 hours; compared to 5Gy radiation therapy. As to the method:
(§1) In order to measure whether a treatment of MB231 breast cancer cells and SKOV3 ovarian cancer cells with a combination of 3-[(4-biphenylyloxy)methyl]piperidine chloride, the selected Nrf2 inhibitor, and radiation therapy increase or synergistically increase the killing of cancer cells by apoptosis, the cancer cells were treated with 1 µM 3-[(4-biphenylyloxy)methyl]piperidine hydrochloride, exposed to 5 Gy radiation, and cultured under 5% CO2 conditions at 37°C for 48 hours. The cultured cells were collected and stained with propidium iodide, and cell cycles were analyzed using a fluorescence activated cell sorting (FACS).

Series [2] concerns SKOV3 ovarian cancer cells. Described as above. The following applies: 1 µM with 5 Gy radiation, 48 hours; compared to 5Gy radiation therapy. As to the method: as §1
The test system of a further series is HO-1 protein. The series can be described thus: Western blotting of HO-1 protein. Particulars: FIG. 3b. On the procedure:
(§2) In order to identify whether the 3-[(4-biphenylyloxy)methyl]piperidine hydrochloride, the selected Nrf2 inhibitor, acted on the ARE site to inhibit the binding of the Nrf2 transcription factor, and thereby inhibiting the expression of antioxidant enzymes, protein expression was analyzed. The increase in the amount of HO-1 protein by the tBHQ treatment was assayed after treating cells with the 3-[(4-biphenylyloxy)methyl]piperidine hydrochloride followed by treatment with tBHQ with a 2-hour gap between the treatments. Cytoplasmic fractions were obtained from the cells treated as described above using a method commonly used in the art. The fractions were separated using a 10% gradient SDS-PAGE, and then transferred to a nitrocellulose membrane (BioRad, Hercules, CA, USA). The membrane was blocked with a 5% skim milk and screened with an anti-Nrf2 antibody (Abcam, USA) and a HO-1 antibody (Oncogene Research Products, USA). The result was visualized by a reaction with a horseradish peroxidase-conjugated anti-rat IgG antibody (Santa Cruz Biotechnology, Inc.) using a thermostat and then with an ECL system (GE, USA).

A further series concerns HO-1 mRNA. The series can be described thus: Semi-quantitative RT-PCR of HO-1 mRNA. The following applies: inhibitor, then tBHQ after 2 hours; GAPDH control; FIG. 3a. On the procedure: After 2 hours from the treatment of 3-[(4-biphenylyloxy)methyl]piperidine chloride, the selected Nrf2 inhibitor, RNA expression was assayed in order to measure the increase in the amount of heme oxygenase (HO)-1 mRNA by tBHQ treatment. mRNA was isolated from the cells treated with 3-[(4-biphenylyloxy)methyl]piperidine hydrochloride, using an RNA extraction kit (Qiagen, USA) and identified using a spectrometer (Amersham Biosciences, USA). cDNA was obtained from the mRNA using a reverse transcriptase (Promega, USA), and PCR was conducted using the cDNA as a template and primers having sequences SEQ ID NOS: 11 and 12 to measure the expression level of HO-1 mRNA. The PCR was performed with 25 cycles, each of which consisting of a denaturation at 94°C for 30 seconds, an annealing at 55°C for 30 seconds, and an extension at 72°C for 1 minute. The DNA obtained using the PCR was electrophoresed in a 1.5% agarose gel, stained using ethidium bromide, and observed under UV rays. […] It is believed that the 3-[(4-biphenylyloxy)methyl]piperidine hydrochloride that is selected as the Nrf2 inhibitor using the ARE-pGL3 luciferase plasmid in Example 1 acted on the ARE site to inhibit the activity of the Nrf2 transcription factor.

Series [3] has as its system U87-MG brain cancer cells. Nature of the series: CCK-8 viability assay, alone and combined with Doxorubicin. Particulars: 48 hours. On the procedure:
(§3) H1299 lung cancer cells, SKOV3 ovarian cancer cells, U87-MG brain cancer cells, and HT29 colorectal cancer cells were respectively inoculated into a 96-well plate including a Rosewell Park Memorial Institute medium 1640 (RPMI 1640) supplemented with 10% FBS, 100 µg/ml of streptomycin, and 100 unit/ml of penicillin. Each well was treated with 0.2, 2, 5, and 10 µM 3-[(4-biphenylyloxy)methyl]piperidine hydrochloride, and then treated with 0.15 µM Doxorubicin, an anti-cancer agent after 2 hours therefrom. The wells were cultured under 5% CO2 conditions at 37°C for 48 hours, and the killing effect of the cancer cells was assayed using a CCK-8 viability assay kit (Dojindo, Japan).

The subject of series [4] is HT29 colorectal cancer cells. The series is described as above. Particulars: 48 hours. On the procedure:
as §3

Series [5] relates to SKOV3 ovarian cancer cells. The series is described as above. The following applies: 48 hours. As to the method: as §3
In series [6] the test system is H1299 lung cancer cells. The description is as above. The following applies: 48 hours. As to the method: as §3
In another series the test system is Nrf2 protein. Nature of the series: Western blotting of Nrf2 protein. The following applies: FIG. 3b. As to the method: as §2
In a further series the test system is Nrf2. Nature of the series: ARE-pGL3 luciferase reporter assay for screening Nrf2 inhibitors in transformed HEK293 cells. On the procedure: Oligomers including an ARE site (SEQ ID NOS: 1 to 10, Bioneer Corp., Ltd., Korea) were synthesized and treated with Kpnl and M1 ul restriction enzymes. The oligomers were inserted into a pGL3 luciferase plasmid (Promega, USA) treated with the Kpnl and M1ul restriction enzymes using a ligase (Promega, USA) to prepare ARE-pGL3 luciferase. […] Besides the plasmid, pcDNA3.1 (Invitrogen, USA) plasmid including a Neo gene was used together as a selection plasmid to select a transformed cell using G418 (neomycin) as a selectable factor.
HEK293 cells were purchased from the American Type Culture Collection (ATCC) and cultured in a Dulbecco's modified Eagle's medium (DMEM) supplemented with 10% fetal bovine serum (FBS), 100 µg/ml of streptomycin, and 100 units/ml of penicillin under 5% CO2 conditions at 37°C. A transformation by which the ARE-pGL3 luciferase was introduced into the HEK293cell was performed using Lipofectamine 2000™ (Invitrogen, Calsbad, CA, USA). Activity of luciferase was measured using a Luciferase Assay Kit (Promega, Medison, WI, USA). […] Based on the result, ARE-pGL3 luciferase plasmid including 4(1/2)xARE-2 having a sequence of SEQ ID NO: 10 was used as a plasmid for screening an Nrf2 inhibitor.
After the transformation performed according to Example 1-(2), transformed HEK293 cells that expressed both ARE-pGL3 luciferase and pcDNA3.1 were selected using a culture medium including G418 (600µg/ml) and used as a cell line for screening the Nrf2 inhibitor. 20,000 cells were inoculated into each well of a 96-well plate and cultured for 24 hours under the conditions described above in Example 1-(2). […] Transformed cells that stably expressed the ARE-pGL3 luciferase plasmid were selected, and 8,000 candidate substances, low molecular weight single compounds were used to screen the Nrf2 inhibitor. Each candidate substance was added to each well to a final concentration of 10 µM. The wells were incubated for 18 hours, and the luciferase activity was measured using a Victor 3 Luminometer (Perkin Elmer, USA).

The subject of series [7] is U87-MG brain cancer cells. Nature of the series: Clonogenic assay with radiation (methylene blue staining). Particulars: 1, 5, and 10 µM with 2, 4, and 6 Gy radiation, 7 days. As to the method: (§4) H1299 lung cancer cells, U87-MG brain cancer cells, or HT29 colorectal cancer cells were respectively inoculated into a 6 cm plate including a RPMI 1640 supplemented with 10% FBS, 100 µg/ml of streptomycin, and 100 unit/ml of penicillin. The plate was treated with the selected 1, 5, and 10 µM 3-[(4-biphenylyloxy)methyl]piperidine hydrochloride, the Nrf2 inhibitor, exposed to 2, 4, and 6 Gy -radiation, and cultured under 5% CO2 conditions at 37°C for 7 days. The cultured cells were washed with a phosphate buffered saline (PBS) and stained with a 1% methylene blue in 100% methanol. Then, the number of alive cells that formed colonies was calculated three times.

Series [8] has as its system HT29 colorectal cancer cells. The series is described as above. The following applies: 1, 5, and 10 µM with 2, 4, and 6 Gy radiation, 7 days. On the procedure: as §4
For series [9], the system named is H1299 lung cancer cells. The series is described as above. Particulars: 1, 5, and 10 µM with 2, 4, and 6 Gy radiation, 7 days. On the procedure:
as §4

The test system of the next series is HEK293 cells. The series can be described thus: CCK-8 viability assay (absorbance at 450 nm) on the screening cells. Particulars: CCK-8, absorbance at 450 nm, FIG. 2b. As to the method: In addition, in order to confirm that the inhibition of the luciferase activity is not caused by the death of a cell but by the Nrf2 inhibitor, absorbance was measured using a CCK-8 viability assay kit (Dojindo, Japan) and a spectrometer (Lab Systems, USA) at 450 nm.

The mark [10] stands for this setting: inhibitor then tBHQ with a 2-hour gap, cytoplasmic fractions, concentration-dependent.
Where [11] appears, read: 0.2, 2, 5, and 10 µM, then 0.15 µM Doxorubicin after 2 hours, compared to Doxorubicin alone.
Setting [12] is: compound alone, 0.2, 2, 5, and 10 µM.

In the case of `Cl.c1ccc(-c2ccc(OCC3CCCNC3)cc2)cc1` (stereo not shown) [3-[(4-biphenylyloxy)methyl]piperidine hydrochloride], the “killing effect of the combination with radiation” value is given as 4.3 times in [1] and “twice” in series [2]. Besides, the “amount of HO-1 protein” value with HO-1 protein (setting [10]) is listed as “reduced”. Moreover, the “expression of HO-1 mRNA” value in the series with HO-1 mRNA is “inhibited in a dose-dependent manner”. The “killing effect of a combination with Doxorubicin” value (in series [3] (setting [11]); in series [4] (setting [11]); in series [5] (setting [11]); in the series on H1299 lung cancer cells [6] (setting [11])) was “significantly increased in a concentration-dependent manner” in each case. Moreover, the “effect on the viability” value (in [3] (setting [12]); in series [4] (setting [12]); in [5] (setting [12]); in the series with H1299 lung cancer cells [6] (setting [12])) was “negligible” in each case. Besides, the “amount of Nrf2 protein” value in the series on Nrf2 protein (setting [10]) is “reduced”. The “activity of the luciferase” value in the series on Nrf2 (concentration dependence, FIG. 2a) is given as “inhibited the activity of the luciferase in a concentration-dependent manner”; with Nrf2 (screening, final concentration of 10 µM, incubated for 18 hours), “inhibits the activity of the luciferase”. Further, the “sensitivity of cells to radiation” value (in [7]; in series [8]; in the series with H1299 lung cancer cells [9]) was “increased or synergistically increased the sensitivity of cells to radiation” in each case. Moreover, the cell toxicity result in the series with HEK293 cells was “does not have cell toxicity”.

Consider `CC(C)(C)c1cc(O)ccc1O` [tBHQ, tertiary butylhydroquinone, reference compound], for which the “amount of HO-1 protein” value in the series with HO-1 protein (treatment with tBHQ) is given as “increased”. Besides, the “amount of Nrf2 protein” value with Nrf2 protein (treatment with tBHQ) is recorded as “increased”. For the same molecule, in the series on Nrf2 (tBHQ added to the culture, activates the ARE), the “activity of the luciferase” value was “increased twice”.

Values taken from patent EP2488179B1, “NRF2 INHIBITORS AND USE THEREOF” (priority 2009, dated 2011).
